Laboratory results as given in patent US6660771B1, “Remedies for liver regeneration of transplanted liver” (Chugai Seiyaku Kabushiki Kaisha, priority 1999, dated 2003).

Tested on: partial liver transplant
Experiment: Liver regeneration-promoting effect in rat 30% orthotopic partial liver transplantation
Assay type: in vivo
Conditions: for Relative liver gain: (liver weight on day 5) / (liver weight on day 0); for Relative liver gain / Liver weight gain: transfusion 50 ml/kg/day up to day 5, mean±SD; for Liver weight gain: (liver weight on day 5) − (liver weight on day 0)
Protocol: Male Wistar rats at 8 weeks of age (240-280g; 8-9 animals per group) were used for 30% orthotopic partial liver transplantation. Isolation of the liver from donors was performed as follows. Animals were abdominally incised under ether anesthesia and about 70% of the liver was resected and the common bile duct and arteries were separated immediately before starting liver perfusion with cold physiological saline from the portal vein. After starting perfusion, the remaining liver with the portal vein and the posterior vena cava-was removed from the donor animal. Recipients were abdominally incised under Nembutal anesthesia and the whole liver was resected and the upper end of the posterior vena cava of the graft was continuously sutured (7-0 proline) with the proximal end of the posterior vena cava of the recipients. The donor posterior vena cava of the graft was sutured end-to-end with that of the recipient, and the portal vein and common bile duct of the graft were anastomosed with those of the recipient, respectively, by the cuff technique. The operation period was 45 minutes on average, the […] period was within 900 seconds, and the total period for cold-storing the graft was 1 hour. Immediately after the operation was completed, a catheter was inserted from the jugular vein. The catheter was passed through the subcutaneous tunnel across both scapulae, and connected to a swivel through a protective coil after a harness was put on the animal. Rats were transferred to a metabolic cage and divided into the following two groups and continuously pumped with the transfusion formula at an administration rate of 50 ml/kg/day up to day 5. Valine group: An aqueous solution of L-valine (Japanese Pharmacopoeia) at 3.376% was transfused in combination with glucose at 5% on the day of operation and 20% on days 1-5. Control group: A solution of a 10% amino acid blend formula (Moripron F® made by Roussel Morishita Co., Ltd.) diluted in distilled water at a total nitrogen level equivalent to that of the valine group was transfused in combination with glucose at 5% on the day of operation and 20% on days 1-5. Animals were given free access to normal feed and water. On day 5, animals were abdominally incised under ether anesthesia and blood was collected from the abdominal aorta and the liver was separated after bleeding. Serum protein (TP), albumin (ALB), GOT, GPT and LDH and the liver weight were determined. The resected liver was fixed with formalin to prepare a hematoxylin-eosin stained sample for histological tests. The measurement results were expressed in mean±SD and statistically analyzed by the Mann-Whitney U test to show a significant difference if p<0.05. Liver weight gain and relative liver gain were determined as morphologic indications of the liver-regenerating effect. Here, the liver weight gain means (liver weight on day 5)-(liver weight on day 0), and the relative liver gain means (liver weight on day 5)/(liver weight on day 0). Not the liver weight itself but the liver weight gain was chosen as indication because liver transplants vary in weight and the difference between the weight of each liver transplant (weight on day 0) and the weight of the regenerated transplant (weight on day 5) more appropriately indicates changes in the transplant.

CC(C)[C@H](N)C(=O)O [Valine, L-valine]
Relative liver gain: 2.24 ± 0.18 | Relative liver gain (listed as valine): 2.24±0.18 | Liver weight gain: 3.88 ± 0.66 g | Liver weight gain (listed as valine): 3.88 ± 0.66 g | Histopathological tests of the regenerated liver (day 5, hematoxylin-eosin stained sample): No abnormal observation | Edema or necrosis of hepatocytes (day 5, histology of regenerated liver): Neither control group nor valine group showed edema or necrosis | Liver weight (g) on day 5 (male Wistar rats, continuous i.v. transfusion 50 ml/kg/day up to day 5, mean±SD): 7.05 ± 0.99 g | Liver weight (g) on day 0 (male Wistar rats, graft weight on day of transplantation (baseline), mean±SD): 3.16 ± 0.45 g | Biochemical blood tests (TP, ALB, GOT, GPT, LDH) (serum on day 5, valine group vs control group): No significant difference
